Here are results for two molecules from patent publication US20150299233A1, “COMPOSITIONS AND METHODS COMPRISING RHENIUM FOR THE TREATMENT OF CANCERS” (Massachusetts Institute of Technology, priority 2014, published 2015).

The subject of data set [1] is HeLa cervical adenocarcinoma cells. The data set is described as follows: MTT cytotoxicity assay, HeLa cells. In kind it is cell-based, human. In general terms: Tetrazolium assays rely on reduction of a dye to a coloured formazan, in cell work by metabolically active cells.
Data set [2] concerns MRC-5. Nature of the data set: MTT cytotoxicity assay, MRC-5 normal lung fibroblasts. In kind it is cell-based, human. As to conditions: for selectivity over normal fibroblast cells (IC50 higher in normal fibroblasts than in cancer cells): cancer cells versus normal fibroblast cells.
Description: (§3) In vitro toxicity of the rhenium (v) oxo complexes, 1 and 2 towards a panel of human cell lines was determined using the colorimetic MTT [[3-(4,5-dimethylithiazol-2-yl)-2,5-diphenyltetrazolium bromide] assay.
(§4) The in vitro effect of rhenium(V) oxo complexes 1 and 2 toward a panel of human cell lines was determined by the colorimetric MTT [3-(4,5-dimethylthiazol-2-yl)-2,5-diphenyltetrazolium bromide] assay. […] The IC50 values, or concentration required to induce 50% cell death, were derived from dose—response curves and are summarized in Table 1.
(§5) Cells (2×10^3 cells/well) were seeded in a 96-well plate. […] 1 and 2 were prepared as 10 mM solutions in DMSO and diluted using media. The final concentration of DMSO in each well was 0.5%, and this amount was also present in the untreated control. After 72 h, the medium was removed, 200 μL of a 0.4 mg/mL solution of MTT in DMEM, RPMI, or McCoy's 5A was added, and the plate was incubated for an additional 1-2 h. The DMEM/MTT, RPMI/MTT, or McCoy's 5A/MTT mixture was aspirated, and 200 μL of DMSO was added to dissolve the resulting purple formazan crystals. The absorbance of the solution wells was read at 550 nm. Absorbance values were normalized to DMSO-containing control wells and plotted as the concentration of test compound versus % cell viability. IC50 values were interpolated from the resulting dose-dependent curves. The reported IC50 values are the average from at least three independent experiments, each of which consisted of six replicates per concentration level.
Data set [3] relates to cisplatin-resistant ovarian carcinoma cells (A2780CP70). Nature of the data set: MTT cytotoxicity assay, A2780CP70 cells. Format: cell-based, human.
Data set [4] concerns MDA-MB-231 (breast adenocarcinoma). The data set is described as follows: MTT cytotoxicity assay, MDA-MB-231 cells. In kind it is cell-based, human. As to conditions: Table 2; cisplatin-resistant cell line; 72 h exposure; read-out: IC50 MDA-M8-231 breast adenocarcinoma.
Data set [5] concerns A549 cells. Nature of the data set: MTT cytotoxicity assay, A549 cells. In kind it is cell-based, human.
Description: as §3, §4, §5
Data set [6] relates to A549 cells. Nature of the data set: Hoechst 33258/propidium iodide double staining, fluorescence microscopy. The conditions noted are these: for nuclear staining, Hoechst 33258 and PI uptake: 20 μM for 12 h; for PI staining on co-incubation with necrostatin-1: necrostatin-1 60 μM for 12 h. Format: cell-based, human. How it is done:
Intracellular ROS production and mitochondrial membrane depletion contribute to necroptosis. Cells undergoing necroptosis display necrosis-like morphological features such as loss of cell membrane integrity, increase in organelle and cell volume (oncosis), and intact nuclear membrane. To further test whether 1- and 2-treatment can trigger necroptosis, Hoechst 33258/propidium iodide (PI) double staining was carried out to determine nuclear membrane morphology and integrity. Hoechst 33258 is a DNA minor groove binder that is routinely used to visualize the nucleus without the need for cell permeabilization. When used without cell permeabilization agents, PI stains the nuclei of necrotic cells. Early-stage apoptotic and normal cells maintain cell membrane integrity and thus are not stained by PI. A549 cells were treated with 1 and 2 (20 μM for 12 h), incubated with Hoechst 33258 and PI, and imaged using a fluorescence microscope.
Fluorescence Microscopy. A549 cells (1.5×10^6 cells/well) were incubated with and without 1 and 2 (20 μM) for 12 h. The media were then removed, and the cells were washed with additional media (2 mL×2). After incubation of the cells with more media containing Hoechst 33258 (7.5 μM) and PI (5 μM), the nuclear regions were imaged using a fluorescence microscope. Fluorescence imaging experiments were performed using a Zeiss Axiovert 200M inverted epifluorscence microscope with a Hamamatsu EM-CCD digital camera C9100 and a MS200 XY Piezo Z stage (Applied Scientific Instruments, Inc.). An X-Cite 120 metal halide lamp (EXFO) was used as the light source. Zeiss standard filter set 49 was employed for imaging the nuclear region. The microscope was operated with Volocity software (version 6.01, Improvision). The exposure time for acquisition of fluorescence images was kept constant for each series of images at each channel.

For data set [7], the system named is U2OS. Nature of the data set: MTT cytotoxicity assay, U2OS cells. In kind it is cell-based, human.
Data set [8] has as its system HT-29. Nature of the data set: Cytotoxicity in the presence of necrostatin-1, HT-29 cells. In kind it is cell-based, human. As to conditions: necrostatin-1 60 μM, t test p<0.05. How it is done: (§1) In order to determine the cell-killing mechanism of 1 and 2, cytotoxicity studies in the presence of apoptosis and necrosis inhibitors were conducted. […] The possibility that 1 and 2 induce necroptosis was then investigated. Necroptosis is a well-regulated mode of cell death that is different from unregulated necrosis and apoptosis. Unlike unregulated necrosis, which can be induced by H2O2 or heat, necroptosis generally involved the interaction of protein kinases, RIP1 and RIP3, to initiate cell disintegration. This process can be blocked by necrostatin-1, a potent RIP1 kinase inhibitor. To determine whether 1 and 2 induced necroptosis and/or uncontrolled necrosis, cytotoxicity studies were conducted in the presence of necrostatin-1 (60 μM) and IM-54 (10 μM), an inhibitor of H2O2-induced necrosis. […] Therefore, 1- and 2-induced cell death relies on RIP1-RIP3 complex formation and not on the expression levels of the individual protein kinases. RIP1 can also form a cytosolic complex with Fas-associated death domain (FADD) and caspase 8, known as a ripoptosome, to initiate apoptosis (through caspase 8 cleavage).
(§2) Cytotoxicity MTT Assay. […] Cells (2×10^3 cells/well) were seeded in a 96-well plate. […] The absorbance of the solution wells was read at 550 nm. Absorbance values were normalized to DMSO-containing control wells and plotted as the concentration of test compound versus % cell viability. […]

The subject of data set [9] is C57BL/6 mice. Nature of the data set: In vivo acute toxicity in mice. The conditions noted are these: single i.p. doses 3-36 mg/kg in saline, monitored 6 days. How it is done: In Vivo Toxicity and Stability in Whole Human Blood. Given the impressive in vitro data acquired for 1 and 2, an in vivo study was conducted with C57BL/6 mice to determine acute toxicity and possible side effects. Single doses of 1 and 2 (3, 7, 11,15, 20, and 36 mg/kg) in saline were administered by intraperitoneal injection. The mice were then monitored for signs of pain, distress, and weight loss for 6 days post-treatment. […] The pharmacological toxicity profile of 1 and 2 is very appealing in terms of further preclinical studies.

In data set [10] the test system is PC-3. Nature of the data set: Cytotoxicity in the presence of necrostatin-1, PC-3 cells. Format: cell-based, human. As to conditions: necrostatin-1 60 μM, t test p<0.05. How it is done: as §1, §2
Data set [11] has as its system A549 cells. The data set is described as follows: Cytotoxicity in the presence of cell death inhibitors, A549 cells. Format: cell-based, human. As to conditions: for effect of co-treatment with IM-54 on toxicity: IM-54 10 μM, FIG. 1B; for effect of co-incubation with necrostatin-1 on toxicity, A549: necrostatin-1 60 μM, t test p<0.05, FIG. 1B.
Description: In order to determine the cell-killing mechanism of 1 and 2, cytotoxicity studies in the presence of apoptosis and necrosis inhibitors were conducted. […] The possibility that 1 and 2 induce necroptosis was then investigated. […] To determine whether 1 and 2 induced necroptosis and/or uncontrolled necrosis, cytotoxicity studies were conducted in the presence of necrostatin-1 (60 μM) and IM-54 (10 μM), an inhibitor of H2O2-induced necrosis.
Cytotoxicity MTT Assay. […] Cells (2×10^3 cells/well) were seeded in a 96-well plate. […] 1 and 2 were prepared as 10 mM solutions in DMSO and diluted using media. The final concentration of DMSO in each well was 0.5%, and this amount was also present in the untreated control. After 72 h, the medium was removed, 200 μL of a 0.4 mg/mL solution of MTT in DMEM, RPMI, or McCoy's 5A was added, and the plate was incubated for an additional 1-2 h. The DMEM/MTT, RPMI/MTT, or McCoy's 5A/MTT mixture was aspirated, and 200 μL of DMSO was added to dissolve the resulting purple formazan crystals. The absorbance of the solution wells was read at 550 nm. Absorbance values were normalized to DMSO-containing control wells and plotted as the concentration of test compound versus % cell viability. IC50 values were interpolated from the resulting dose-dependent curves. The reported IC50 values are the average from at least three independent experiments, each of which consisted of six replicates per concentration level.
For specific cell death inhibitor assays, inhibitors of necroptosis (necrostatin-1, 60 μM), H2O2-induced necrosis (IM-54, 10 μM), and apoptosis (v-VAD-FMK, 5 μM) were added to cells and incubated for 1 h prior to treatment with the test compounds.
Data set [12] concerns confluent A549 cells. Nature of the data set: MTT cytotoxicity assay, confluent A549 cells. In kind it is cell-based, human. As to conditions: for IC50: Table 2, confluent cells, 72 h exposure, read-out: IC50 A549 (confluent) lung carcinoma; for IC50 higher in confluent A549 cells than in A549 cells in log phase growth: confluent versus log phase.
The mark [13] stands for this setting: Table 1, 72 h exposure, ± standard deviation, read-out: IC50 HeLa cervical adenocarcinoma.
Setting [14] is: Table A, average of three independent determinations, read-out: IC50 HeLa (cervical).
The mark [15] stands for this setting: Table 1, 72 h exposure, ± standard deviation, read-out: IC50 MRC-5 lung fibroblast.
The mark [16] stands for this setting: Table A, average of three independent determinations, read-out: IC50 MRC5 (lung normal).
[17] abbreviates: Table 1, 72 h exposure, ± standard deviation, read-out: IC50 A2780CP70 ovarian carcinoma.
[18] abbreviates: Table A, average of three independent determinations, read-out: IC50 A280CP70 (ovarian).
[19] abbreviates: Table 1, 72 h exposure, ± standard deviation, read-out: IC50 A549 lung carcinoma.
Setting [20] is: Table A, average of three independent determinations, read-out: IC50 A549 (lung).
Setting [21] is: Table 1, 72 h exposure, ± standard deviation, read-out: IC50 U2OS bone osteosarcoma.
[22] abbreviates: Table A, average of three independent determinations, read-out: IC50 U2OS (bone).

Each structure is given as a SMILES string. Like-named read-outs stand apart in the source and are kept apart here.

As a reminder, the IC50 is the point on the concentration scale where inhibition reaches its midpoint. Turning to `C[O][Re-2]1(=[O])([Cl])([Cl])[n+]2cc(C)c(C)c3ccc4c(C)c(C)c[n+]1c4c32` [Compound 2, [ReO(OMe)(3,4,7,8-tetramethyl-1,10-phenanthroline)Cl2]], the IC50 was 695 ± 21 nM in data set [1] (setting [13]); 695 ± 21 nM in [1] (setting [14]); 709 ± 76 nM in data set [2] (setting [15]); 709 ± 76 nM in data set [2] (setting [16]); 56 ± 2 nM in [3] (setting [17]); 56 ± 2 nM in data set [3] (setting [18]). In addition, the IC50 in data set [4] was determined as 1740 ± 275 nM; in data set [5] (setting [19]), 157 ± 15 nM; in data set [5] (setting [20]), 73 ± 3 nM; in data set [7] (setting [21]), 209 ± 31 nM; in data set [7] (setting [22]), 209 ± 31 nM; in data set [12], 5240 ± 1990 nM. In addition, the “selectivity over normal fibroblast cells (IC50 higher in normal fibroblasts than in cancer cells)” value in data set [2] is “about 10 fold”. Further, the “nuclear staining, Hoechst 33258 and PI uptake” value in data set [6] is “pink nuclei”. Further, in data set [6], the “PI staining on co-incubation with necrostatin-1” value was “unstained by PI”. In [8], the “effect of co-incubation with necrostatin-1 on toxicity, HT-29” value is “markedly decreased the toxicity”. Besides, in [9], the “acute toxicity in mice, gauged by weight loss” value is reported as “no toxicity”. The “effect of co-incubation with necrostatin-1 on toxicity, PC-3” value in [10] was “markedly decreased the toxicity”. Further, the “effect of co-treatment with IM-54 on toxicity” value in data set [11] was “did not significantly affect the toxicity”. For the same molecule, the “effect of co-incubation with necrostatin-1 on toxicity, A549” value in data set [11] is on record as “markedly decreased the toxicity”. In [12], the “IC50 higher in confluent A549 cells than in A549 cells in log phase growth” value worked out at 40 fold.
For the molecule `C[O][Re](=[O])([Cl])[Cl].c1ccc(-c2ccnc3c2ccc2c(-c4ccccc4)ccnc23)cc1` [Compound 1, [ReO(OMe)(4,7-diphenyl-1,10-phenanthroline)-Cl2]], the IC50 in data set [1] (setting [13]) amounted to 445 ± 4 nM; in data set [1] (setting [14]), 445 nM; in data set [2] (setting [15]) it was 1350 ± 228 nM; in data set [2] (setting [16]) it was 1350 ± 228 nM; in data set [3] (setting [17]), 42 ± 15 nM; in [3] (setting [18]), 42 ± 15 nM. Moreover, the IC50 is 475 ± 161 nM in data set [4]; 207 ± 4 nM in data set [5] (setting [19]); 207 ± 4 nM in data set [5] (setting [20]); 274 ± 6 nM in data set [7] (setting [21]); 274 ± 6 nM in data set [7] (setting [22]); 8610 ± 749 nM in data set [12]. The “selectivity over normal fibroblast cells (IC50 higher in normal fibroblasts than in cancer cells)” value in data set [2] is recorded as “about 10 fold”. The “higher toxicity for lung carcinoma A549 cells than cisplatin” value in data set [5] (ratio to cisplatin, Example 1) was 37 fold. Moreover, the “nuclear staining, Hoechst 33258 and PI uptake” value in data set [6] is recorded as “pink nuclei”. In data set [6], the “PI staining on co-incubation with necrostatin-1” value was “unstained by PI”. Also, the “effect of co-incubation with necrostatin-1 on toxicity, HT-29” value in [8] is “markedly decreased the toxicity”. The “acute toxicity in mice, gauged by weight loss” value in data set [9] is on record as “no toxicity”. The “effect of co-incubation with necrostatin-1 on toxicity, PC-3” value in data set [10] is “markedly decreased the toxicity”. Further, in data set [11], the “effect of co-treatment with IM-54 on toxicity” value is “did not significantly affect the toxicity”. For the same molecule, the “effect of co-incubation with necrostatin-1 on toxicity, A549” value in [11] is recorded as “markedly decreased the toxicity”. Moreover, the “IC50 higher in confluent A549 cells than in A549 cells in log phase growth” value in data set [12] turned out to be 40 fold.
